Laboratory results published in PubChem BioAssay AID652225 (The Scripps Research Institute Molecular Screening Center, 2013).
Calls of active or inactive are those of the source.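 How the source made its calls: active means compounds inhibiting PP5 with an IC50 below 50 µM; inactive means IC50 of 50 µM or more.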

What follows are molecules tested against Serine/threonine-protein phosphatase 5 (Homo sapiens) (UniProt P53041) (assay: human PP5c inhibitor potency, radiometric – biochemical, radiolabel, glycogen phosphorylase substrate, set 2, selectivity assay for PP1 inhibitor project, late-stage follow-up (AID 652225)). Conditions: purified PP5c, 32P-glycogen phosphorylase dephosphorylation, scintillation.
Sequence of Serine/threonine-protein phosphatase 5 (Homo sapiens) (P53041 whole entry, looked up): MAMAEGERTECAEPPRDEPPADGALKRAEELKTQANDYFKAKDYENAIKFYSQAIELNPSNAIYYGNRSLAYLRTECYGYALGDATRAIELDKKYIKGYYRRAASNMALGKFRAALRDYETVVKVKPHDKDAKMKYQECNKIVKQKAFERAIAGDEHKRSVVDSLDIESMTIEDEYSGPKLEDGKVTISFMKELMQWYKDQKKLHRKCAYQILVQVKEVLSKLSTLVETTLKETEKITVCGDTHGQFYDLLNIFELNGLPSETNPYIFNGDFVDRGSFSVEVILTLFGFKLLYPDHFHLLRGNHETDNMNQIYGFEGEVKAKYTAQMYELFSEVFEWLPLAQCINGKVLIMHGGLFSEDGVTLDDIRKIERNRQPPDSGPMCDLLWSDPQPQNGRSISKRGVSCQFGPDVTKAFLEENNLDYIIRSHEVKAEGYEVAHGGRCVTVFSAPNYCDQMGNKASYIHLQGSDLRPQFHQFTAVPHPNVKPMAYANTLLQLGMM
In the case of `N#Cc1c(-c2ccc(Cl)cc2)cc(-c2cccs2)nc1SCC(=O)O`, the IC50 is reported as > 50 µM (inactive). `CCn1c2ccccc2c2cc(NC(=O)COC(=O)c3ccc(NC(=O)CC#N)cc3)ccc21` was tested, and the IC50 was > 50 µM (inactive). For `CN1CCN(C(c2ccccn2)c2cc(Cl)c3cccnc3c2O)CC1` (stereo not given), the IC50 was > 50 µM (inactive). `COc1ccc(NC(=O)C2C3CCC(O3)C2C(=O)O)c(OC)c1` (stereo not given) gave an IC50 of 4.16 µM. With `CCOC(=O)c1sc2nc3c(SCC(=O)O)cc(C(=O)c4cc(F)ccc4O)cn3c(=O)c2c1C` the IC50 was > 50 µM (inactive).
